Five compounds from paper PMC12406196, “Anticoronavirus Activity of Uridine Glycoconjugates Containing a 1,2,3-Triazole Moiety” (Journal of Medicinal Chemistry, 2025) can be followed below.

The subject of one series is LR7 cells. Kind of series: MTS-based cell viability assay in LR7 cells. More on the design: species or system mouse. Conditions: 50 μM, uninfected LR7 cells. The procedure:
(§1) LR7, LLC-Mk2 or Vero cells were seeded in 96-well plates and cultured overnight. Next, the medium was changed to a new one supplemented with different concentrations (in triplicate) of analyzed compounds. Following the 2 days (LR7 and Vero) or 4 days (LLC-Mk-2) of incubation, CellTiter 96 AQueous nonradioactive cell proliferation assay (Promega) was performed according to the manufacturer’s instruction. The half-maximal cytotoxic concentration (CC50) was calculated as the concentration of a compound needed to reduce cell viability by 50% using GraphPad Prism software (version 5.01, GraphPad Software, San Diego, CA).

Series [1] concerns murine hepatitis virus strain A59 (MHV). In words: Reduction of MHV cytopathic effect (CPE) in LR7 cells, MTS/PMS readout. The series is classed as cell-based. Conditions: for protection against MHV-induced CPE: 50 μM, MOI 0.01, 24 h; for concentration above which MHV-induced CPE was significantly reduced: MOI 0.01, 24 h p.i. The procedure:
LR7 cells were seeded in a 96-well plate and cultured overnight. Next, the cells were infected with MHV at an MOI value of 0.01 in medium without FBS. Following 1 h of incubation, the medium containing the virus was collected and cells were covered with a medium supplemented with different concentrations (in triplicate) of the analyzed compounds or DMSO. 24 h p.i. cells viability was evaluated by CellTiter 96 AQueous nonradioactive cell proliferation assay (Promega) according to the manufacturer’s instruction.
In general terms: Damage to the host cells serves as the signal in cytopathic effect assays.

Series [2] has as its system human coronavirus strain NL63 (HCoV-NL63). In words: HCoV-NL63 N protein expression in LLC-Mk2 cells, Western blot and densitometry. The series is classed as cell-based. Conditions: for HCoV-NL63 N protein level: 50 μM, MOI 0.01, 4 days p.i., Western blot/densitometry. As to the method: LLC-Mk2 monolayers grown in 24-well plates were infected with HCoV-NL63 at an MOI value of 0.01 for 2 h. Unbound virus was removed, and cells were cultured in medium supplemented with different concentrations of compounds. Four days postinfection, cells were collected and lysed in CellLyticM Cell Lysis Reagent (Sigma). Following the protein separation by SDS-PAGE and transfer to PVDF membranes, proteins were immunoblotted using specific mouse anti-N NL63 Abs (Eurofins, Spain) or rabbit anti-β-catenin Abs (Santa Cruz), followed by antimouse or antirabbit secondary antibodies conjugated with HRP. Proteins were visualized and analyzed by chemiluminescence using the UVITEC Cambridge Alliance MINI HD detection system. The densitometric analysis of cells treated with 50 μM dose of a panel of glycoconjugates was performed based on three biological replicates of N and β-catenin immunoblots. The N protein levels were expressed as a percentage relative to DMSO-treated infected cells, while β-catenin levels were expressed as a percentage relative to noninfected control cells. The data were presented as the ratio of N/β-catenin for each sample, normalized accordingly.
(Immunoblotting shows a protein as a band on a membrane.)

Series [3] can be described thus: MTS-based cell viability assay in LR7 cells. More on the design: species or system mouse. Conditions: mouse, LR7 cells, 48 h, 0–100 μM, read-out: CC50 (MHV block). The procedure:
as §1

A short description of series [4]: MTS-based cell viability assay in LLC-Mk2 cells. Conditions: Macaca mulatta, read-out: CC50 (HCoV-NL63 block). As to the method:
as §1

A short description of series [5]: MTS-based cell viability assay in Vero cells. Conditions: African green monkey, 96 h per table footnote, read-out: CC50 (SARS-CoV-2 block). The procedure:
as §1

Series [6] has as its system murine hepatitis virus strain A59 (MHV). Kind of series: MHV titer in medium of infected LR7 cells, plaque assay. The series is classed as cell-based. Conditions: for pIC50: Murine coronavirus, read-out: IC50 (MHV). The procedure: LR7 or LLC-Mk2 cells were infected at a MOI of 0.01 with MHV and HCoV-NL63, respectively, and treated with selected compounds at a concentration ranging from 0 to 50 μM. Culture supernatants were collected 1 day (MHV) or 4 days (HCoV-NL63) after infection. Virus titer was determined by plaque assay.
(§2) The half-maximum inhibitory concentration value (IC50) indicating the concentration of compound needed to reduce virus titer by 50% in comparison to the control, was evaluated by GraphPad software (version 5.01, GraphPad Software, San Diego, CA).

The test system of series [7] is human coronavirus strain NL63 (HCoV-NL63). In words: HCoV-NL63 titer in medium of infected LLC-Mk2 cells, foci-forming assay. The series is classed as cell-based. Conditions: for pIC50: 96 h, virus titer released from LLC-Mk2 cells, MOI 0.01, 4 days p.i., read-out: IC50 (HCoV-NL63). The procedure:
LR7 or LLC-Mk2 cells were infected at a MOI of 0.01 with MHV and HCoV-NL63, respectively, and treated with selected compounds at a concentration ranging from 0 to 50 μM. Culture supernatants were collected 1 day (MHV) or 4 days (HCoV-NL63) after infection. […]
as §2

For another series, the system named is SARS-CoV-2. Kind of series: SARS-CoV-2 infectivity in supernatants of infected Vero cells, plaque assay. The class given is cell-based. Conditions: for pIC50: read-out: IC50 (SARS-CoV-2). As to the method:
Vero cells were seeded in appropriate plates and allowed to reach an approximately 90% confluence. For infection, 200 μL of viral suspension containing 10^5 pfu (SARS-CoV-2 strain SARS-CoV-2/human/Czech Republic/951/2020) was added to each well and incubated for 2 h at 37 °C to allow virus adsorption. After the incubation, the viral medium was removed, and the wells were washed gently with phosphate-buffered saline (PBS). Test compounds were prepared in serial dilutions to final concentrations of 50, 25, 12.5, 6.25, 3.125, and 0 μM in the medium (DMEM containing 2% FBS). The compounds were added in quadruplicate to the infected cells. The plates were then incubated for 48 h at 37 °C. Following the 48 h treatment period, the supernatants were removed, and plaque assays in Vero E6 cells were performed to assess viral titers. Cells were fixed and stained 4 days after infection to visualize plaques, as described previously.
as §2

The next series deals with HCoV-NL63 RNA synthesis. In words: HCoV-NL63 RNA level in infected LLC-Mk2 cells, RT-PCR. The class given is cell-based, human coronavirus NL63. Conditions: MOI 0.01, 96 h p.i. As to the method: LR7 or LLC-Mk2 were cultured in 12-well plate overnight. Next, LR7 cells were infected with MHV at an MOI value of 1 for 1 h or LLC-Mk2 cells were infected with HCoV-NL63 at an MOI value of 0.01 for 2 h. Following removal of unbound virus, cells were cultured with medium supplemented with different concentrations of selected compounds. 8 h p.i. (MHV) or 96 h p.i. (HCoV-NL63) cells were collected and total RNA was isolated by CoV RNA kit (A&A Biotechnology, Poland) according to the manufacturer’s instruction. To evaluate levels of viral RNA in infected cells Qiagen One-Step RT-PCR reaction was performed. Following reverse transcription, the PCR reaction was carried out using primers: F: […], R: […] for amplification of a fragment of HCoV-NL63 genome (position: 26418–26960 bp NC_005831.2) and F: […] and R: […] for amplification of a fragment of MHV genome (position: 30341–30902 bp FJ647225.1). For internal control fragment of β-actin mRNA was reverse transcribed and amplified using primers For: […] and Rev: […].

The test system of the next series is SARS-CoV-2 replicon. The class given is cell-based.
Where [8] appears, read: virus titer released from LR7 cells, MOI 0.01, 24 h p.i., plaque assay.
The mark [9] stands for this setting: Severe acute respiratory syndrome coronavirus 2, Vero, supplementary CSV, decimal comma.
Where [10] appears, read: Severe acute respiratory syndrome coronavirus 2, Vero cells, supernatant 48 h after infection, plaque assay.

pIC50: −log10 of the molar value. Entries after “also recorded” stand apart in the source; their conditions may differ. Like-named read-outs stand apart in the source and are kept apart here.

For `CC(=O)OC[C@H]1O[C@@H](NC(=O)Cn2cc(CNC(=O)[C@H]3O[C@@H](n4ccc(=O)[nH]c4=O)[C@H](O[Si](C)(C)C(C)(C)C)[C@@H]3O[Si](C)(C)C(C)(C)C)nn2)[C@H](OC(C)=O)[C@@H](OC(C)=O)[C@H]1OC(C)=O` [Compound 19, N-Uracil [((1-(2-oxo-(2″,3″,4″,6″-tetra-O-Acetyl-β-D-galactopyranosyl)-amino)-ethyl)-1,2-3-triazol-4-yl)-methyl]-1′-deoxy-2′,3′-di-O-tert-butyldimethylsilyl-β-D-ribofuranuronamide], in the series on LR7 cells, the “reduction of cell viability (cytotoxicity in uninfected cells)” value (shortened to “reduction of cell viability”) was 10–30%. The “protection against MHV-induced CPE” value in [1] is listed as “limited anti-MHV activity”. For the same compound, the “HCoV-NL63 N protein level” value in [2] was “No significant reduction”.
One may read the CC50 as the concentration that lowers cell viability or growth by half. A word on the pIC50: it is the negative decadic logarithm of the IC50, by convention in mol/L. For the compound `CC(=O)OC[C@H]1O[C@@H](SCc2cn(C[C@H]3O[C@@H](n4ccc(=O)[nH]c4=O)[C@H](O[Si](C)(C)C(C)(C)C)[C@@H]3O[Si](C)(C)C(C)(C)C)nn2)[C@H](OC(C)=O)[C@@H](OC(C)=O)[C@@H]1OC(C)=O` [Compound 20, 2′,3′-di-O-tert-Butyldimethylsilyl-5′-deoxy-5′-[4-(2″,3″,4″,6″-tetra-O-acetyl-β-D-glucopyranosylthiomethyl)-1,2-3-triazol-1-yl]-uridine], the CC50 at 48 h in series [3] is > 100 µM. For the same compound, in the series with LR7 cells, the “reduction of cell viability” value was “no detectable toxicity”. For the same compound, the CC50 at 96 h in series [4] and in series [5] was > 100 µM throughout. The “protection against MHV-induced CPE” value in series [1] was “significantly reduced cell death; also recorded: nearly eliminating CPE”. In addition, in [1], the “concentration above which MHV-induced CPE was significantly reduced” value was “above 6.25 μM”. Moreover, the pIC50 in [6] (LR7, supplementary CSV, decimal comma) was 4.95; in series [6] (setting [8]) it was 4.95; in [7] it was 5.26; with SARS-CoV-2 (setting [9]), 4.79; in the series with SARS-CoV-2 (setting [10]), ~4.79. Moreover, the “HCoV-NL63 N protein level” value in [2] was “significantly reduced; also recorded: reduction of N, as well as β-catenin levels”. In series [7] (dose-response 0–25 μM, LLC-Mk2 cells), the “antiviral efficacy against HCoV-NL63 compared with compound 24” value is given as “slightly lower activity”. In the series on SARS-CoV-2 (25 μM, Vero cells), the “reduction in SARS-CoV-2 viral titers” value is “highest level of activity”. Further, the “concentration that effectively suppressed HCoV-NL63 RNA synthesis” value in the series on HCoV-NL63 RNA synthesis stood at 6.25 µM. Also, the “inhibition of SARS-CoV-2 replication (replicon)” value (shortened to “inhibition”) with SARS-CoV-2 replicon is “inhibited SARS-CoV-2 replication; also recorded: effectively suppressed SARS-CoV-2 replication; also recorded: partial”.
As for `CC(=O)OC[C@H]1O[C@@H](SCn2cc(CNC(=O)[C@H]3O[C@@H](n4ccc(=O)[nH]c4=O)[C@H](O[Si](C)(C)C(C)(C)C)[C@@H]3O[Si](C)(C)C(C)(C)C)nn2)[C@H](OC(C)=O)[C@@H](OC(C)=O)[C@@H]1OC(C)=O` [Compound 22, N-Uracil [(1-(2″,3″,4″,6″-tetra-O-Acetyl-β-D-glucopyranosylthiomethyl)-1,2-3-triazol-4-yl)-methyl]-1′-deoxy-2′,3′-di-O-tert-butyldimethylsilyl-β-D-ribofuranuronamide], the “reduction of cell viability” value in the series with LR7 cells is recorded as “no detectable toxicity”. Also, in [1], the “protection against MHV-induced CPE” value was “significantly reduced cell death”. Also, in [2], the “HCoV-NL63 N protein level” value is given as “No significant reduction”.
For `CC(=O)OC[C@H]1O[C@@H](SCn2cc(COC[C@H]3O[C@@H](n4ccc(=O)[nH]c4=O)[C@H](O[Si](C)(C)C(C)(C)C)[C@@H]3O[Si](C)(C)C(C)(C)C)nn2)[C@H](OC(C)=O)[C@@H](OC(C)=O)[C@@H]1OC(C)=O` [Compound 24, 2′,3′-di-O-tert-Butyldimethylsilyl-5′-O-[(1-(2″,3″,4″,6″-tetra-O-acetyl-β-D-glucopyranosylthiomethyl)-1,2-3-triazol-4-yl)-methyl]-uridine], in series [3], the CC50 at 48 h is > 100 µM. Further, the “reduction of cell viability” value in the series on LR7 cells is given as 10–30%. Also, the CC50 at 96 h in series [4] is 59.1 µM; in series [5], > 100 µM. Also, in series [1], the “protection against MHV-induced CPE” value was “significantly reduced cell death”. Moreover, the “concentration above which MHV-induced CPE was significantly reduced” value in [1] is on record as “above 12.5 μM”. Also, the “dose above which no virus was detectable (MHV titer)” value in series [6] (LR7 cells, 24 h p.i., plaque assay) is on record as “above 6.25 μM”. Moreover, the pIC50 in series [6] (setting [8]) is 5.43; in [7] it was 5.51; in the series with SARS-CoV-2 (setting [9]), 4.73; with SARS-CoV-2 (setting [10]), ~4.73. Besides, in [2], the “HCoV-NL63 N protein level” value is on record as “significantly reduced; also recorded: No N protein was detected”. Moreover, the “dose above which HCoV-NL63 viral protein expression was completely inhibited” value in series [2] (4 days p.i., immunoblot) is given as “above 6.25 μM”. Further, in series [7] (LLC-Mk2 cells, 4 days p.i., foci-forming assay), the “dose above which HCoV-NL63 viral release was completely inhibited” value is given as “above 6.25 μM”. For the same compound, in the series on HCoV-NL63 RNA synthesis, the “concentration that effectively suppressed HCoV-NL63 RNA synthesis” value turned out to be 6.25 µM. In the series with SARS-CoV-2 replicon, the “inhibition” value was “inhibited SARS-CoV-2 replication; also recorded: effectively suppressed SARS-CoV-2 replication; also recorded: partial”.
As to `CC(C)(C)[C@H](NC(=O)C(F)(F)F)C(=O)N1C[C@H]2[C@@H]([C@H]1C(=O)N[C@H](C#N)C[C@@H]1CCNC1=O)C2(C)C` [nirmatrelvir, reference compound], the “inhibition” value with SARS-CoV-2 replicon is given as “inhibited SARS-CoV-2 replication”.
